Structures can show the parent of a compound that is named as a salt. Where two headings read alike, the source gives them in different places. Each block holds one molecule with its values, some of them ahead of it.
What was measured:
[1] = test system: γ-glutamyl transpeptidase (GGT); assay: γ-Glutamyl transpeptidase (GGT) enzyme recognition test; type: biochemical; conditions: 37° C.
Procedure: To 0.150 mL of this doxorubicin-bonded glutamic acid derivative (prodrug) PBS solution, 0.150 mL of a 2 U/mL GGT solution obtained by dissolving GGT (0.22 mg, 8 U/mg) (Sigma-Aldrich Company) in PBS (0.880 mL) was added, and the mixture was allowed to react at 37° C.
The reaction liquid was analyzed by HPLC, and thus the residual ratio of the doxorubicin-bonded glutamic acid derivative (prodrug) and the production ratio of doxorubicin were determined.
To 0.100 mL of the doxorubicin-bonded glutamic acid derivative PBS solution, 0.100 mL of a 2 U/mL GGT solution obtained by dissolving GGT (0.38 mg, 8 U/mg) (Sigma-Aldrich Company) in PBS (1.520 mL) was added, and the mixture was allowed to react at 37° C. […]

[2] = test system: OS-RC-2 cells having high GGT activity; assay: cells; type: cell-based, human
Procedure: (§1) After the cells were incubated for 6 hours, the interior of the wells was washed, and after the cells were further incubated for 3 days, the cells were immobilized with methanol and stained using Methylene Blue dye. After staining, the dye was extracted with a 0.3% aqueous solution of hydrochloric acid was extracted, and the light absorbance at 660 nm was measured. For the light absorbance thus obtained, the cell proliferation suppressive activity was evaluated based on the reduction ratio for the light absorbance measured from cells to which the compound was not added.
(§2) By a similar operation, the cell proliferation suppressive activity was evaluated from the light absorbance, using doxorubicin that was not converted to a glutamic acid derivative. The results are shown in FIG. 1 (OS-RC-2 cells having high GGT activity) and FIG. 2 (SK-OV-3 cells having low GGT activity).
(§3) The cell proliferation inhibitory activity of the EHC-bonded glutamic acid derivative according to Synthesis Example 6 was evaluated using OS-RC-2 cells (RIKEN BioResource Center), which are known to have high GGT activity, and SK-OV-3 cells (American Type Culture Collection), which are known to have low GGT activity.
(§4) On a 96-well plate, OS-RC-2 cells having high GGT activity and SK-OV-3 cells having low GGT activity were each inoculated in an amount of 4,000 cells/well and were incubated for one day at 37° C. and 5% CO2, and then the EHC prodrug according to Synthesis Example 6 was added to the cells at a final concentration of 0.0001 to 1 μM. After the cells were incubated for 6 hours, the interior of the wells was washed, and the cells were further incubated for 3 days. After the incubation, the cells were immobilized with methanol and were stained using Methylene Blue dye. After staining, the dye was extracted with a 0.3% aqueous solution of hydrochloric acid, and the light absorbance at 660 nm was measured. The cell proliferation suppressive activity was evaluated based on the reduction ratio for the light absorbance thus obtained, with respect to the light absorbance measured from cells to which the compound was not added.
(§5) By a similar operation, EHC, which was an active ingredient of Synthesis Example 6, was used without modification, and the cell proliferation suppressive activity was evaluated from the light absorbance.

[3] = test system: SK-OV-3 cells having low GGT activity; assay: cells; type: cell-based
Procedure: as §1, §2, §3, §4, §5

[4] = test system: OS-RC-2 cells having high GGT activity; type: cell-based, human; conditions: GGsTop 10 μM
Procedure: OS-RC-2 cells were inoculated by a method similar to that of Test Example 3. […] After the cells were incubated for 6 hours, the interior of the wells was washed, and after the cells were further incubated for 3 days, the cell proliferation suppressive activity was evaluated by a method similar to that of Test Example 3.
By a similar operation, the cell proliferation suppressive activity was evaluated using doxorubicin that was not glutamic acid-derivatized, from the light absorbance of the compound.
The GGT activity dependency of the cell proliferation inhibitory activity of the EHC-bonded glutamic acid derivative according to Synthesis Example 6 was evaluated using OS-RC-2 cells having high GGT activity.
OS-RC-2 cells were inoculated by a method similar to that of Test Example 10. After the cells were incubated for one day, GGsTop (Wako Pure Chemical Industries, Ltd.), which is a GGT inhibitor, was added to the cells at a final concentration of 10 μM, and the cells were incubated for one hour. Subsequently, the EHC-bonded glutamic acid derivative according to Synthesis Example 6 was added to the cells at a final concentration of 0.0001 to 1 μM. After the cells were incubated for 6 hours, the interior of the wells was washed, and after the cells were incubated for 3 days, the cell proliferation suppressive activity was evaluated by a method similar to that of Test Example 10.
By a similar operation, the cell proliferation suppressive activity was evaluated using EHC, which is the active ingredient of Synthesis Example 6, from the light absorbance of the compound.

[5] = Phosphate buffered physiological saline (PBS) solution stability test; type: physicochemical; conditions: PBS (DMSO stock), 37° C.
Procedure: 0.148 mL of the doxorubicin-bonded glutamic acid derivative PBS solution was dissolved in 0.148 mL of a PBS solution, and the solution was allowed to react at 37° C.
PBS (0.100 mL) was added to the EHC-bonded glutamic acid derivative solution (0.100 mL), and the mixture was allowed to react at 37° C. The reaction liquid was analyzed by HPLC, and thereby the residual ratio of the EHC-bonded glutamic acid derivative was determined.
PBS (0.117 mL) was added to the camptothecin-bonded glutamic acid derivative solution (0.117 mL), and the mixture was allowed to react at 37° C. The reaction liquid was analyzed by HPLC, and thereby the residual ratio of the glutamic acid derivative was determined.
The reaction liquid was analyzed by HPLC, and thereby the residual ratio of the EHC-bonded glutamic acid derivative was determined.

[6] = type: in vitro ADME; conditions: 24 h, 0.0856 mg/mL
Procedure: Mouse blood plasma (0.180 mL) was added to a 0.856 mg/mL DMSO solution of the EHC-bonded glutamic acid derivative of Synthesis Example 6 (0.020 mL), and the mixture was allowed to react at 37° C.
The reaction liquid was analyzed by HPLC, and thereby the residual ratio of the EHC-bonded glutamic acid derivative was determined. 94% of the EHC-bonded glutamic acid derivative prodrug remained after 24 hours.

[7] = test system: human renal cell cancer OS-RC-2; assay: Test on antitumor effect of Synthesis Example 6, OS-RC-2; type: in vivo, SCID mice; conditions: three times at an interval of 4 days
Procedure: By an operation similar to that of Test Example 15, to those mice having human renal cell cancer OS-RC-2 transplanted thereinto, the EHC-bonded glutamic acid derivative of Synthesis Example 6 was intravenously administered through the caudal vein, on the 17th day after tumor transplantation, at a dose of 20, 40, or 80 mg/kg three times in total at an interval of 4 days.
(§6) After the administration, the major axis (L) and the minor axis (W) of a tumor were measured using calipers at an interval of 2 to 3 days, the tumor volume was calculated by the formula: (L×W^2)/2, and the tumor volume change rate from the administration initiation day was determined.

[8] = Test on pharmacokinetics of Synthesis Example 6 (tissue AUC, OS-RC-2 tumor-bearing mice); design: species or system SCID mice; conditions: mouse, in vivo
Procedure: Human renal cell cancer OS-RC-2 tumors that had been subcutaneously subcultured in SCID mice were produced into blocks that measured about 2 mm on each side, and the blocks were subcutaneously transplanted into SCID mice using a trocar.
At time points of 5 minutes, 1 hour, 3 hours, and 6 hours after the administration, various tissues such as blood plasma, liver, bone marrow, and tumor were collected under ether anesthesia. The drug concentrations of EHC as an active drug of Synthesis Example 6, the unchanged drug of Synthesis Example 6, and the unchanged drug of CPT-11 in the various tissues were quantitatively analyzed by a LC-MS/MS method under the following measuring instrument and conditions.
From the concentrations of EHC, the EHC-bonded glutamic acid derivative according to Synthesis Example 6, and CPT-11 in the tissues at various time points, the AUC0-6 hr (μg·hr/mL or g) values of the various components up to 6 hours after the initiation of administration were calculated. As the prodrug activation rates of Synthesis Example 6 and CPT-11 in the various tissues, the AUC0-6 hr ratios of the active drug with respect to the unchanged drug (AUCEHC/AUCSynthesis Example 6 unchanged drug, and AUCEHC/AUCCPT-11) were determined.

[9] = test system: human ovarian cancer SHIN-3 tumors; assay: Test on antitumor effect of Synthesis Example 1, SHIN-3 tumors; type: in vivo; conditions: 5 mg/kg i.v., at an interval of 7 days
Procedure: By an operation similar to that of Test Example 12, human ovarian cancer SHIN-3 tumors were subcutaneously transplanted into SCID mice, and tumor engraftment was confirmed.
as §6

[10] = after 6 hours, 2 mM PBS solution + 2 U/mL GGT solution

Residual ratio of the glutamic acid derivative [1, 10]: 93%
SMILES: COc1cccc2c1C(=O)c1c(O)c3c(c(O)c1C2=O)C[C@@](O)(C(=O)CO)C[C@@H]3O[C@H]1C[C@H](NC(=O)CC[C@H](N)C(=O)O)[C@H](O)[C@H](C)O1 [Comparative Example 1, (S)-(4-amino-4-carboxybutanamido)doxorubicin, reference compound]

SMILES: CC[C@@]1(O)C(=O)OCc2c1cc1n(c2=O)Cc2cc3c(NC(=O)CC[C@H](N)C(=O)O)cccc3nc2-1 [Comparative Example 2, 9-((S)-4-amino-4-carboxybutanamido)camptothecin, reference compound]
Residual ratio of the glutamic acid derivative [1, 10]: 99%

SMILES: CCc1c2c(nc3ccc(O)cc13)-c1cc3c(c(=O)n1C2)COC(=O)[C@]3(O)CC [EHC, 7-ethyl-10-hydroxycamptothecin, reference compound]
Cell proliferation inhibitory activity ([2]; OS-RC-2 cells, 0.01 μM, 6 hours exposure then 3 days incubation): 26%
Cell proliferation inhibitory activity ([3]; SK-OV-3 cells, 0.01 μM, 6 hours exposure then 3 days incubation): 27.7%
Effect of GGT inhibitor on cell proliferation suppressive activity ([4]; compound 0.0001 to 1 μM): did not affect the cell proliferation suppressive activity

SMILES: CCc1c2c(nc3ccc(OC(=O)OCc4ccc(NC(=O)CC[C@H](N)C(=O)O)cc4)cc13)-c1cc3c(c(=O)n1C2)COC(=O)[C@]3(O)CC [Synthesis Example 2, (((4-((S)-4-amino-4-carboxybutanamido)benzyl)oxy)carbonyl)-10-oxy-7-ethylcamptothecin]
Residual ratio of the glutamic acid derivative in PBS ([5]; after 3.5 hours): 52%

SMILES: CC[C@@]1(OC(=O)OCc2ccc(NC(=O)CC[C@H](N)C(=O)O)cc2)C(=O)OCc2c1cc1n(c2=O)Cc2cc3ccccc3nc2-1 [Synthesis Example 3, (((4-((S)-4-amino-4-carboxybutanamido)benzyl)oxy)carbonyl)camptothecin]
Residual ratio of the glutamic acid derivative in PBS ([5]; after 3 hours): 74%

SMILES: COc1cccc2c1C(=O)c1c(O)c3c(c(O)c1C2=O)CC(O)(C(=O)CO)CC3OC1CC(NC(=O)OCc2ccc(NC(=O)CCC(N)C(=O)O)cc2)C(O)C(C)O1 [Synthesis Example 4, (((4-((S)-4-amino-4-carboxybutanamido)benzyl)oxy)carbonyl)epirubicin]
Residual ratio of the glutamic acid derivative [1, 10]: 5%

Residual ratio of the glutamic acid derivative ([1]; after 6.5 hours, 1 mM PBS solution + 2 U/mL GGT solution): 34%
SMILES: N[C@@H](CCC(=O)Nc1ccc(COC(=O)Nc2ccn([C@@H]3O[C@H](CO)C(O)[C@H]3O)c(=O)n2)cc1)C(=O)O (stereo partly drawn) [Synthesis Example 5, (((4-((S)-4-amino-4-carboxybutanamido)benzyl)oxy)carbonyl)cytarabine]

SMILES: CCc1c2c(nc3ccc(OCc4ccc(NC(=O)CC[C@H](N)C(=O)O)cc4)cc13)-c1cc3c(c(=O)n1C2)COC(=O)[C@]3(O)CC [Synthesis Example 6, 10-(4-((S)-4-amino-4-carboxybutanamido)benzyloxy)-7-ethylcamptothecin ditrifluoroacetate]
Disappearance of the glutamic acid derivative and production of EHC by GGT ([1]; 0.34 mg/mL DMSO solution diluted with PBS + 0.227 mg/mL GGT solution): rapidly disappeared in one hour of the reaction and produced EHC
Residual ratio of the glutamic acid derivative in PBS ([5]; after 24 hours): 90%
inhibition at 0.01 µM ([2]; Homo sapiens, OS-RC-2, read-out: Cell proliferation inhibitory activity): 25%
Residual ratio of the glutamic acid derivative in mouse blood plasma [6]: 94%
Antitumor effect (relative tumor volume) ([7]; 80 mg/kg-administered group, i.v.): noticeable tumor regression effect
Antitumor effect (relative tumor volume) ([7]; 20, 40, or 80 mg/kg i.v.): dose-dependent antitumor effect
inhibition at 0.01 µM ([3]; Homo sapiens, SK-OV-3, read-out: Cell proliferation inhibitory activity): 1.3%
Effect of GGT inhibitor on cell proliferation suppressive activity ([4]; compound 0.0001 to 1 μM): inhibited the activity
Activation rate AUCEHC/AUC unchanged drug [8]: 0.03-0.16 times

SMILES: COc1cccc2c1C(=O)c1c(O)c3c(c(O)c1C2=O)C[C@@](O)(C(=O)CO)C[C@@H]3O[C@H]1C[C@H](N)[C@H](O)[C@H](C)O1 [doxorubicin hydrochloride, reference compound]
Toxicity (death of mice) [9]: the mice died after the second administration due to toxicity

SMILES: COc1cccc2c1C(=O)c1c(O)c3c(c(O)c1C2=O)C[C@@](O)(C(=O)CO)C[C@@H]3O[C@H]1C[C@H](N)[C@H](O)[C@H](C)O1 [doxorubicin, reference compound]
inhibition at 10 µM ([2]; Homo sapiens, OS-RC-2 cells, 10 μM, 6 hours exposure then 3 days incubation, read-out: Cell proliferation inhibitory activity): 77%
inhibition at 10 µM ([3]; Homo sapiens, SK-OV-3 cells, 10 μM, 6 hours exposure then 3 days incubation, read-out: Cell proliferation inhibitory activity): 77%
Effect of GGT inhibitor on cell proliferation suppressive activity ([4]; compound 0.039 to 10 μM): did not affect the cell proliferation suppressive activity

— patent publication US20200190101A1, “Composition Containing Novel Glutamic Acid Derivative And Block Copolymer, And Use Thereof” (Nippon Kayaku Kabushiki Kaisha, priority 2015, published 2020)
